Data: patent publication US10189785B2, “Heterocyclic compound” (TAKEDA PHARMACEUTICAL COMPANY LIMITED, priority 2015, dated 2019)

Assays:
[1] = tested on: lung adenocarcinoma cell line HCC4006; experiment: HCC4006 cell growth inhibition test (Test Example 2); format: cell-based; details: Homo sapiens, 120 h; 1 μM test compound; HCC4006 cells, culture for 5 days, CellTiter-Glo; read-out: Rate of inhibition (%) at 1 μM
Summary of the method: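 HCC4006 cells in RPMI-1640 with 10% FBS were seeded at 250 cells/well and dosed with compound the next day. After 5 days, viability was read by CellTiter-Glo luminescence. Percent inhibition was calculated against no-compound control and cell-free blank.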

[2] = tested on: human leukemia cell line PL-21 cancer-bearing mice; experiment: Antitumor test using PL-21 cell (Test Example 3); format: in vivo, mouse
Procedure: The compound of the present invention was evaluated for its antitumor effect on human leukemia cell line PL-21 cancer-bearing mice by the following method.
The human leukemia cell line PL-21 (JCRB) was transplanted to each 6-week-old Icr-scid female mouse (CLEA Japan Inc.) by the subcutaneous injection of 3.0×10^6 cells. The tumor size of successfully engrafted tumor was measured 13 days after the transplantation. The tumor volume was calculated according to the following expression: Tumor volume=Major axis×Minor axis×Minor axis×(½)
Individuals in which the volume of the engrafted tumor reached 100 to 150 mm^3 were selected and used in the experiment as groups each involving 5 or 6 individuals. A 0.5% methylcellulose suspension of each test compound was orally administered to each mouse using the dose (indicated by single dose), the number of doses and the dosing period shown in Table 5. The tumor sizes at the day before the start of the administration and one day after the completion of the administration were measured and the tumor volume was calculated.
The rate of tumor growth (T/C (%)) in the test compound administration group compared with a control administration group was calculated according to the following expression: T/C (%)=(Tumor volume after the completion of the administration of the test compound administration group−Tumor volume before the start of the administration of the test compound administration group)/(Tumor volume after the completion of the administration of the control administration group−Tumor volume before the start of the administration of the control administration group)×100

[3] = target: T1, SPT (SPT2-expressing membrane fraction: human SPT1, human SPT2 and human ssSPTa) (Homo sapiens, UniProt O15269+O15270); experiment: SPT enzyme inhibition test (Test Example 1); format: biochemical; details: read-out: Rate of inhibition (%) at 1 μM
T1 construct: Full-length human SPT1, human SPT2 and human ssSPTa used; made in house; host or cells: FreeStyle 293 cells (pcDNA3.1 vectors, cotransfection); crude membrane fraction used
T1 sequence (O15269 1-473): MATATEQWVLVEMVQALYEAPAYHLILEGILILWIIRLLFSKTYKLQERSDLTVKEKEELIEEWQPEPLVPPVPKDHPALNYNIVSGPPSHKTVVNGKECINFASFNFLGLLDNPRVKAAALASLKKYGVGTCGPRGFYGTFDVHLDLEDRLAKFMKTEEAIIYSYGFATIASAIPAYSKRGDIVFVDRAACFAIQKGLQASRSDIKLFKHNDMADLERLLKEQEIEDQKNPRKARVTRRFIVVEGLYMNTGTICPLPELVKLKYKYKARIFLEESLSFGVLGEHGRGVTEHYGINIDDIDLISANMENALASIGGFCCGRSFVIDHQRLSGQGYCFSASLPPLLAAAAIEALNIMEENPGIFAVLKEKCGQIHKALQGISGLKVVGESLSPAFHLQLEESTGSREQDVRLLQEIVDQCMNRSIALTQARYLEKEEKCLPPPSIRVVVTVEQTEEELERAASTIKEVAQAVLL
T1 sequence (O15270 1-562): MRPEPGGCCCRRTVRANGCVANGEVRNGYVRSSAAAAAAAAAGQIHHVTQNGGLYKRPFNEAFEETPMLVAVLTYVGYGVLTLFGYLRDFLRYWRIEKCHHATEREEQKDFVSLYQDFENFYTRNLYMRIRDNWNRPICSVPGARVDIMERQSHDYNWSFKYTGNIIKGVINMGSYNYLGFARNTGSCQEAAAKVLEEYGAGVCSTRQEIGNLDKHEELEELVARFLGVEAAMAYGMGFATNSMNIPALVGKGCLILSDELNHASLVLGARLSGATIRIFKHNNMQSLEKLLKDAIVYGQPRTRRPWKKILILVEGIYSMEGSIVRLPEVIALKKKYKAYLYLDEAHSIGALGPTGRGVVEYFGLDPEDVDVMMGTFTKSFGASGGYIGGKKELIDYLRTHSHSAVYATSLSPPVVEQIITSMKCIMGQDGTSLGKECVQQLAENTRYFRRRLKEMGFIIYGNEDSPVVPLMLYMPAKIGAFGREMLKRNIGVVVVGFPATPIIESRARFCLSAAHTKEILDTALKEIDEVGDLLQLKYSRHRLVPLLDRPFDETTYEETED
T1 sequence (Q969W0 1-71 partner): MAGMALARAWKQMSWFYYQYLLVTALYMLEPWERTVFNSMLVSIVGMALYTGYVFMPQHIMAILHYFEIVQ
Summary of the method: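 Membrane fraction (100 μg/mL stock) of cells expressing human SPT1, SPT2 and ssSPTa was preincubated 60 min at RT with compound in 100 mM Hepes pH 8.0 containing EDTA, DTT and 0.01% BSA. Reaction ran 15 min at RT with 2 mM L-serine and 20 μM palmitoyl CoA (solution concentrations), then formic acid quench. Product measured by RapidFire mass spectrometry against a C17-sphinganine internal standard, giving % inhibition.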

[4] = 10 mg/kg orally, administered once every two days, 14 days
[5] = 30 mg/kg orally, administered once every two days, 14 days

Compound	inhibition at 1 µM [3] [%]	inhibition at 1 µM [1] [%]	T/C (%) ([2]; 10 mg/kg orally, administered every day for 3 days, 4-day drug holiday, 2 cycles)	T/C (%) [2, 4] [%]	T/C (%) [2, 5] [%]
Cn1nc(C(F)(F)F)cc1C(=O)N[C@@H]1CCN(C(=O)c2cc(Cl)c3nccnc3c2)C[C@@H]1c1ccccc1 [Example 81B, N-((3S,4R)-1-((8-Chloroquinoxalin-6-yl)carbonyl)-3-phenylpiperidin-4-yl)-1-methyl-3-(trifluoromethyl)-1H-pyrazole-5-carboxamide]		54	16	63	32
COc1cc(C(=O)N2CC[C@H](NC(=O)c3ccccc3OC(F)(F)F)c3c2cnn3C(C)C)cnc1OC [Example 162A, N-((7S)-4-((5,6-Dimethoxypyridin-3-yl)carbonyl)-1-isopropyl-4,5,6,7-tetrahydro-1H-pyrazolo[4,3-b]pyridin-7-yl)-2-(trifluoromethoxy)benzamide]		56		52	38
COc1cc(C(=O)N2CC[C@@H](NC(=O)c3c(C)nn(C)c3Cl)[C@@H](c3ccccc3)C2)cc2nccnc12 [Example 345B, 5-chloro-N-((3S,4R)-1-((8-methoxyquinoxalin-6-yl)carbonyl)-3-phenylpiperidin-4-yl)-1,3-dimethyl-1H-pyrazole-4-carboxamide]	102	48			
COc1cc(C(=O)N2CC[C@@H](NC(=O)c3ccccc3OC(F)F)[C@H](c3ccc(F)cc3)C2)cnc1OC [Example 361B, 2-(difluoromethoxy)-N-((3R,4R)-1-((5,6-dimethoxypyridin-3-yl)carbonyl)-3-(4-fluorophenyl)piperidin-4-yl)benzamide]	102	45			
COc1cc(C(=O)N2CC[C@@H](NC(=O)c3cc(C(F)(F)F)nn3C)[C@@H](c3ccccc3)C2)cc2nccnc12 [Example 412B, N-((3S,4R)-1-((8-Methoxyquinoxalin-6-yl)carbonyl)-3-phenylpiperidin-4-yl)-1-methyl-3-(trifluoromethyl)-1H-pyrazole-5-carboxamide]	102	47			

Further lines, with some results ahead:

inhibition at 1 µM [3] [%]	Compound	inhibition at 1 µM [1] [%]	T/C (%) ([2]; 10 mg/kg orally, administered every day for 3 days, 4-day drug holiday, 2 cycles)	T/C (%) [2, 4] [%]	T/C (%) [2, 5] [%]
103	Cc1nn(C)c(Cl)c1C(=O)N[C@@H]1CCN(C(=O)c2cc(C)c3ncc(C)n3c2)C[C@@H]1c1ccccc1 [Example 344B, 5-chloro-N-((3S,4R)-1-((3,8-dimethylimidazo[1,2-a]pyridin-6-yl)carbonyl)-3-phenylpiperidin-4-yl)-1,3-dimethyl-1H-pyrazole-4-carboxamide]	51			
102	COc1cc(C(=O)N2CC[C@@H](NC(=O)c3cc(C(F)(F)F)nn3C)[C@@H](c3ccc(F)cc3)C2)cc2nccnc12 [Example 352B, N-((3S,4R)-3-(4-fluorophenyl)-1-((8-methoxyquinoxalin-6-yl)carbonyl)piperidin-4-yl)-1-methyl-3-(trifluoromethyl)-1H-pyrazole-5-carboxamide]	50			
